Experimental data as given in US20240376074A1, “NAMPT INHIBITORS AND USES THEREOF” (Remedy Plan, Inc., priority 2021, published 2024).

Molecular target: T1, NAMPT (Homo sapiens, UniProt P43490)
T1 construct: purchased Abcam ab221819
Assay: NAMPT Activity Assay (Abcam #ab221819)
Format: biochemical
Conditions: purified NAMPT, percent inhibition from OD450 nm; compound concentration not given
Procedure: The NAMPT Activity Assay (Abcam #ab221819) was performed following manufacturers two-step reaction protocol. Briefly, compounds were added to a clear 96-well plate using the HP D300e Digital Dispenser. Purified NAMPT was added to all wells except the No NAMPT controls. Reaction Mix #1 was added to each well and the plate was incubated at 30*C for 1 hr followed by the addition of Reaction Mix #2. Absorbance was measured at OD450 nm using a multimode plate reader. Readings were recorded for 5 minutes and percent inhibition was calculated using: (1-(OD450 nm compound/OD450nm no drug))*100.

T1 sequence (P43490 whole entry): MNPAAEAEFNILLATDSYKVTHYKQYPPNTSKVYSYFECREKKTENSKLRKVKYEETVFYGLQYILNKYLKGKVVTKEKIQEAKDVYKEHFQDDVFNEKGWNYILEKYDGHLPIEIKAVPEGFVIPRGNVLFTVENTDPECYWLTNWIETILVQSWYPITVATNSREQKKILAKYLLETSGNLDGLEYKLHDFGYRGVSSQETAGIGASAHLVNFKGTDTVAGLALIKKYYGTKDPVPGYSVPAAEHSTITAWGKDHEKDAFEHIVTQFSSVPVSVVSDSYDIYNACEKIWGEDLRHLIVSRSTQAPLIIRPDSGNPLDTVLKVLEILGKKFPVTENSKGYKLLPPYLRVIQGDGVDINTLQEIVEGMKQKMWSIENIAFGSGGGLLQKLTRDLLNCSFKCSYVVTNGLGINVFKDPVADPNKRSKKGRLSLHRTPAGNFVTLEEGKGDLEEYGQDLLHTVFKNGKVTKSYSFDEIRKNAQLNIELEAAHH

Compound | NAMPT Inhibition Code*
CC(=O)N(CC(F)F)c1ccc(-c2ccc(C(=O)NCCCn3ccnc3)cn2)cc1Cl [I-T2288, 6-[4-[Acetyl(2,2-difluoroethyl)amino]-3-chloro-phenyl]-N-(3-imidazol-1-ylpropyl)pyridine-3-carboxamide] | C (C = ≥66% inhibition)
CC(=O)N(CC1CC1)c1ccc(-c2ccc(NC(=O)C3CC3c3cccnc3)cn2)cc1Cl (stereo not drawn) [I-T2289, N-[6-[4-[acetyl(cyclopropylmethyl)amino]-3-chloro-phenyl]-3-pyridyl]-2-(3-pyridyl)cyclo propanecarboxamide] | C (C = ≥66% inhibition)
CC(=O)N(CC(F)F)c1ccc(-c2ccc(NC(=O)Cc3cccnc3)cn2)cc1Cl [I-T2290, N-[6-[4-[acetyl(2,2-difluoroethyl)amino]-3-chloro-phenyl]-3-pyridyl]-2-(3-pyridyl) acetamide] | C (C = ≥66% inhibition)
CC(=O)N(CC(F)F)c1ccc(-c2ccc(NC(=O)COc3cccnc3)cn2)cc1Cl [I-T2291, N-[6-[4-[acetyl(2,2-difluoroethyl)amino]-3-chloro-phenyl]-3-pyridyl]-2-(3-pyridyloxy)acetamide] | C (C = ≥66% inhibition)
CC(=O)N(CC(F)F)c1ccc(-c2ccc(NC(=O)/C=C/c3cccnc3)cn2)cc1Cl [I-T2293, (E)-N-[6-[4-[acetyl(2,2-difluoroethyl)amino]-3-chloro-phenyl]-3-pyridyl]-3-(3-pyridyl)prop-2-enamide] | C (C = ≥66% inhibition)
CC(=O)N(CC(F)F)c1ccc(-c2ccc(NC(=O)C3CC3c3cccnc3)cn2)cc1Cl (stereo not drawn) [I-T2294, N-[6-[4-[acetyl(2,2-difluoroethyl)amino]-3-chloro-phenyl]-3-pyridyl]-2-(3-pyridyl)cyclopropane carboxamide] | C (C = ≥66% inhibition)
COC(=O)c1cc(-c2ccc(C(=O)Nc3cnc4nccn4c3)cn2)ccc1N(CC1CC1)C(C)=O [I-T2295, Methyl 2-[acetyl(cyclopropylmethyl)amino]-5-[5-(imidazo[1,2-a]pyrimidin-6-ylcarbamoyl)-2-pyridyl]benzoate] | C (C = ≥66% inhibition)
COC(=O)c1cc(-c2ccc(C(=O)NCCc3cccnc3)cn2)ccc1N(CC1CC1)C(C)=O [I-T2296, Methyl 2-[acetyl(cyclopropylmethyl)amino]-5-[5-[2-(3-pyridyl)ethylcarbamoyl]-2-pyridyl]benzoate] | C (C = ≥66% inhibition)
COC(=O)c1cc(-c2ccc(C(=O)NCCc3cn[nH]c3)cn2)ccc1N(CC1CC1)C(C)=O [I-T2297, Methyl 2-[acetyl(cyclopropylmethyl)amino]-5-[5-[2-(1H-pyrazol-4-yl)ethylcarbamoyl]-2-pyridyl]benzoate] | C (C = ≥66% inhibition)
COC(=O)c1cc(-c2ccc(C(=O)NCCCc3cn[nH]c3)cn2)ccc1N(CC1CC1)C(C)=O [I-T2298, Methyl 2-[acetyl(cyclopropylmethyl)amino]-5-[5-[3-(1H-pyrazol-4-yl)propylcarbamoyl]-2-pyridyl]benzoate] | C (C = ≥66% inhibition)
COC(=O)c1cc(-c2ccc(C(=O)NCCCc3cc[nH]n3)cn2)ccc1N(CC1CC1)C(C)=O [I-T2299, Methyl 2-[acetyl(cyclopropylmethyl)amino]-5-[5-[3-(1H-pyrazol-3-yl)propylcarbamoyl]-2-pyridyl]benzoate] | C (C = ≥66% inhibition)
COC(=O)c1cc(-c2ccc(C(=O)NCCCn3ccnc3)cn2)ccc1N(CC1CC1)C(C)=O [I-T2300, Methyl 2-[acetyl(cyclopropylmethyl)amino]-5-[5-(3-imidazol-1-ylpropylcarbamoyl)-2-pyridyl]benzoate] | C (C = ≥66% inhibition)
CC(=O)N(CC1CC1)c1ccc(-c2ccc(C(=O)NCCc3cccnc3)cn2)cc1F [I-T2301, 6-[4-[acetyl(cyclopropylmethyl)amino]-3-fluoro-phenyl]-N-[2-(3-pyridyl)ethyl]pyridine-3-carboxamide] | C (C = ≥66% inhibition)
CC(=O)N(CC1CC1)c1ccc(-c2ccc(C(=O)NCCCc3cn[nH]c3)cn2)cc1F [I-T2302, 6-[4-[acetyl(cyclopropylmethyl)amino]-3-fluoro-phenyl]-N-[3-(1H-pyrazol-4-yl)propyl]pyridine-3-carboxamide] | C (C = ≥66% inhibition)
CC(=O)N(CC1CC1)c1ccc(-c2ccc(C(=O)NCCc3cccnc3)cn2)cc1C(F)(F)F [I-T2303, 6-[4-[Acetyl(cyclopropylmethyl)amino]-3-(trifluoromethyl)phenyl]-N-[2-(3-pyridyl)ethyl]pyridine-3-carboxamide] | C (C = ≥66% inhibition)
CC(=O)N(CC1CC1)c1ccc(-c2ccc(C(=O)NCCCc3cn[nH]c3)cn2)cc1C(F)(F)F [I-T2304, 6-[4-[Acetyl(cyclopropylmethyl)amino]-3-(trifluoromethyl)phenyl]-N-[3-(1H-pyrazol-4-yl)propyl]pyridine-3-carboxamide] | C (C = ≥66% inhibition)
CC(=O)N(CC1CC1)c1ccc(-c2ccc(C(=O)NCCc3cccnc3)cn2)cc1C#N [I-T2305, 6-[4-[Acetyl(cyclopropylmethyl)amino]-3-cyano-phenyl]-N-[2-(3-pyridyl)ethyl]pyridine-3-carboxamide] | C (C = ≥66% inhibition)
CC(=O)N(CC1CC1)c1ccc(-c2ccc(C(=O)NCCCc3cn[nH]c3)cn2)cc1C#N [I-T2306, 6-[4-[acetyl(cyclopropylmethyl)amino]-3-cyano-phenyl]-N-[3-(1H-pyrazol-4-yl)propyl]pyridine-3-carboxamide] | C (C = ≥66% inhibition)
CC(=O)N(CC1CC1)c1ccc(-c2ccc(C(=O)NCCc3ccncc3)cn2)cc1Cl [I-T2308, 6-[4-[Acetyl(cyclopropylmethyl)amino]-3-chloro-phenyl]-N-[2-(4-pyridyl)ethyl]pyridine-3-carboxamide] | C (C = ≥66% inhibition)
CC(=O)N(CC1CC1)c1ccc(-c2ccc(C(=O)NCCc3ccc(C)nc3)cn2)cc1Cl [I-T2309, 6-[4-[Acetyl(cyclopropylmethyl)amino]-3-chloro-phenyl]-N-[2-(6-methyl-3-pyridyl)ethyl]pyridine-3-carboxamide] | B (B = >33 to <66% inhibition)
CC(=O)N(CC1CC1)c1ccc(-c2ccc(C(=O)NCCCc3cc[nH]n3)cn2)cc1C#N [I-T2313, 6-[4-[acetyl(cyclopropylmethyl)amino]-3-cyano-phenyl]-N-[3-(1H-pyrazol-5-yl)propyl]pyridine-3-carboxamide] | C (C = ≥66% inhibition)
CC(=O)N(CC1COC1)c1ccc(-c2ccc(C(=O)NCc3ccccc3)cn2)cc1Cl [I-T2327, 6-[4-[acetyl(oxetan-3-ylmethyl)amino]-3-chloro-phenyl]-N-benzyl-pyridine-3-carboxamide] | A (*A = <33% inhibition)
CC(=O)N(CC1CC1)c1ccc(-c2ccc(NC(=O)COc3ccccc3)cn2)cc1Cl [I-T2328, N-[6-[4-[acetyl(cyclopropylmethyl)amino]-3-chloro-phenyl]-3-pyridyl]-2-phenoxy-acetamide] | C (C = ≥66% inhibition)
CC(=O)N(CC1CC1)c1ccc(-c2ccc(NC(=O)/C=C/c3ccccc3)cn2)cc1Cl [I-T2329, (E)-N-[6-[4-[acetyl(cyclopropylmethyl)amino]-3-chloro-phenyl]-3-pyridyl]-3-phenyl-prop-2-enamide] | C (C = ≥66% inhibition)
CC(=O)N(CC1CC1)c1ccc(-c2ccc(NC(=O)C(F)c3ccccc3)cn2)cc1Cl (stereo not drawn) [I-T2331, N-[6-[4-[acetyl(cyclopropylmethyl)amino]-3-chloro-phenyl]-3-pyridyl]-2-fluoro-2-phenyl-acetamide] | B (B = >33 to <66% inhibition)
CC(=O)N(CC1CC1)c1ccc(-c2ccc(C(=O)N3Cc4ccc(F)cc4C3)cn2)cc1Cl [I-T2336, N-[2-chloro-4-[5-(5-fluoroisoindoline-2-carbonyl)-2-pyridyl]phenyl]-N-(cyclopropylmethyl) acetamide] | C (C = ≥66% inhibition)
CC(=O)N(CC1CC1)c1ccc(-c2ccc(C(=O)NCC3CCCCC3)cn2)cc1Cl [I-T2337, 6-[4-[acetyl(cyclopropylmethyl)amino]-3-chloro-phenyl]-N-(cyclohexylmethyl)pyridine-3-carboxamide] | C (C = ≥66% inhibition)
CC(=O)N(CC1CC1)c1ccc(-c2ccc(C(=O)NCC3CCCN(C)C3)cn2)cc1Cl (stereo not drawn) [I-T2338, 6-[4-[acetyl(cyclopropylmethyl)amino]-3-chloro-phenyl]-N-[(1-methyl-3-piperidyl)methyl]pyridine-3-carboxamide] | A (*A = <33% inhibition)
CC(=O)N(CC1CC1)c1ccc(-c2ccc(C(=O)NCCN3CCCCC3)cn2)cc1Cl [I-T2339, 6-[4-[acetyl(cyclopropylmethyl)amino]-3-chloro-phenyl]-N-[2-(1-piperidyl)ethyl]pyridine-3-carboxamide] | A (*A = <33% inhibition)
CC(=O)N(CC1CC1)c1ccc(-c2ccc(C(=O)NCC3CCCCO3)cn2)cc1Cl (stereo not drawn) [I-T2340, 6-[4-[acetyl(cyclopropylmethyl)amino]-3-chloro-phenyl]-N-(tetrahydropyran-2-ylmethyl)pyridine-3-carboxamide] | A (*A = <33% inhibition)
